The source of these data is ChEMBL document CHEMBL5518195, “N-(Heteroaryl)thiophene sulfonamides as angiotensin AT2 receptor ligands” (Eur J Med Chem, 2024).

The target of data set [1] is T1, Type-2 angiotensin II receptor (Homo sapiens, UniProt P50052).
T1 sequence (P50052 whole entry): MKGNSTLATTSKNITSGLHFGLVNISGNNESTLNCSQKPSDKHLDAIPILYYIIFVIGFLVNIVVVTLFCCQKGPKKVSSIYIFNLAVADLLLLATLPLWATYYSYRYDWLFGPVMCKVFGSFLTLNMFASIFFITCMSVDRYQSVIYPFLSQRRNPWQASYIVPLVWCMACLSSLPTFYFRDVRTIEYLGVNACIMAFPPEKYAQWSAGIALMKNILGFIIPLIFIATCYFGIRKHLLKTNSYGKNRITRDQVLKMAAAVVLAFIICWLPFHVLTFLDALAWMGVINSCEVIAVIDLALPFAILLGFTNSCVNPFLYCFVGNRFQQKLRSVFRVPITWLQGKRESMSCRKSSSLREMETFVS
Briefly: Displacement of [125I][Sar1 Ile8]-angiotensin II binding to human AT2R expressed in HEK293 cells. The class given is cell-based. Background: In a radioligand displacement assay an active substance lowers the binding of a labelled ligand.

Data set [2] is described as follows: Stability in human liver microsomes assessed as half life at 1 uM in presence of NADPH by LC-MS/MS analysis. It counts as ADME, Microsome.
A short description of data set [3]: Stability in mouse liver microsomes assessed as half life at 1 uM in presence of NADPH by LC-MS/MS analysis. The class given is ADME, Microsome. To be noted: time 60 min. (Liver microsomes are a subcellular fraction often used to study metabolism.)
Data set [4] can be described thus: Apparent permeability across apical to basal side in human Caco-2 cells at 5 uM measured for 15 to 60 mins by LC-MS/MS analysis. The class given is ADME, cell-based. The settings on record: time 15-60 min.
Data set [5] is described as follows: Efflux ratio of apparent permeability in human Caco-2 cells at 5 uM measured for 15 to 60 mins by LC-MS/MS analysis. It counts as ADME, cell-based. To be noted: time 15-60 min.
Another data set deals with Thoracic aorta. Nature of the data set: Induction of vasorelaxation in pre-contracted thoracic aorta of FVB/N mouse. It counts as functional, tissue-based.
Data set [6] is described as follows: Stability in human hepatocytes assessed as half life at 1 uM by LC-MS/MS analysis. The class given is ADME, cell-based, Hepatocyte.
Data set [7] has as its target T2, Type-1 angiotensin II receptor (Homo sapiens, UniProt P30556).
T2 sequence (P30556 whole entry): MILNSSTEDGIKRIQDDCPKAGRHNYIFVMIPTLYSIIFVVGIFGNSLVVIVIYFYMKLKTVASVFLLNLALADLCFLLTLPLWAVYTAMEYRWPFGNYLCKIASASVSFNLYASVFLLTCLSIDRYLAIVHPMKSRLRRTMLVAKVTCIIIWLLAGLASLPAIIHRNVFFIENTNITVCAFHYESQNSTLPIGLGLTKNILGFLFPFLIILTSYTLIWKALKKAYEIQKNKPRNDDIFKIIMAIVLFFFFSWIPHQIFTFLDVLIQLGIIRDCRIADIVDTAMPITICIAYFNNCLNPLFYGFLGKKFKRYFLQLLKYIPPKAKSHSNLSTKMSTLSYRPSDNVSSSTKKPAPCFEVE
Briefly: Inhibition of [125I][Sar1 Ile8]-angiotensin II binding to human AT1R expressed in HEK293 cells. The class given is cell-based.

As a reminder, the Ki is the equilibrium dissociation constant of an inhibitor or competing ligand from its target. A lower Ki goes with higher affinity. What is called half-life is the time needed for the level to fall by half in the phase considered. As a reminder, the Papp A→B is the apparent permeability from the apical to the basolateral side of a cell layer. Usually efflux ratio stands for the permeability from basolateral to apical divided by that in the opposite direction, in the common usage.

The compound `CC(C)Cc1cc(-c2cccc(C(=O)Cn3ccnc3C(C)(C)C)c2)c(S(=O)(=O)Nc2ncc(C(F)(F)F)cn2)s1` yielded an inhibition constant Ki in data set [1] of 0.002 µM. Besides, the half-life at 1 µM was found to be 4.8 min in data set [2] and 12 min in data set [3].
`Cc1nc(NS(=O)(=O)c2sc(CC(C)C)cc2-c2cccc(Cn3ccnc3)c2)ncc1Cl`: the inhibition constant (Ki) in data set [1] is 0.3 µM. Further, the figures for the half-life at 1 µM in data set [2] and in data set [3] were 6.6 min and 23 min, respectively.
As to `CCCCOC(=O)NS(=O)(=O)c1sc(CC(C)C)cc1-c1cccc(Cn2ccnc2)c1`, the Papp A→B at 5 µM in data set [4] was determined as 3.4 ×10⁻⁶ cm/s.
With `COc1ccc2c(c1OCc1ccccc1)C[C@@H](C(=O)O)N(C(=O)C(c1ccccc1)c1ccccc1)C2` [OLODANRIGAN], the efflux ratio at 5 µM in data set [5] amounted to 32. The Papp A→B at 5 µM in data set [4] was 1.8 ×10⁻⁶ cm/s.
For the compound `CC(C)Cc1cc(-c2cccc(C(=O)Cn3ccnc3C(C)(C)C)c2)c(S(=O)(=O)Nc2ncc(Br)cn2)s1`, the inhibitory constant (Ki) in data set [1] came to 0.0015 µM. Moreover, the half-life at 1 µM was 4.3 min in data set [2] and 11 min in data set [3].
Turning to `CC(C)Cc1cc(-c2cccc(C(=O)Cn3ccnc3C(C)(C)C)c2)c(S(=O)(=O)Nc2ncccn2)s1`, the efflux ratio at 5 µM in data set [5] stood at 77. In addition, the apical-to-basolateral permeability (Papp A→B) at 5 µM in data set [4] was 4.9 ×10⁻⁶ cm/s. The Activity entry in the data set on Thoracic aorta is “Dose-Dependent Effect”. In addition, the Ki is 0.0049 µM in data set [1] and more than 3 µM in data set [7]. In addition, the half-life at 1 µM was 77 min in data set [6], 20 min in data set [2] and 17 min in data set [3].
`CC(C)Cc1cc(-c2cccc(Cn3ccnc3)c2)c(S(=O)(=O)Nc2nccs2)s1`: the inhibition constant Ki in data set [1] stood at 0.65 µM. The half-life at 1 µM in data set [2] worked out at 61 min; in data set [3], 210 min.
Consider `CC(C)Cc1cc(-c2cccc(Cn3ccnc3)c2)c(S(=O)(=O)Nc2nc3ccccc3s2)s1.O=C(O)C(F)(F)F`, for which the inhibitory constant (Ki) in data set [1] stood at 0.8 µM. Moreover, the figures for the half-life at 1 µM in data set [2] and in data set [3] were 56 min and 480 min, respectively.
Take `CC(C)Cc1cc(-c2cccc(C(=O)Cn3ccnc3C(C)(C)C)c2)c(S(=O)(=O)Nc2ncc(Cl)cn2)s1.O=C(O)C(F)(F)F`: in data set [1], the inhibition constant Ki is 0.0033 µM. Besides, the half-life at 1 µM in data set [2] stood at 6.2 min; in data set [3] it was 11 min.
Consider `CC(C)Cc1cc(-c2cccc(Cn3ccnc3)c2)c(S(=O)(=O)Nc2nccc(C#N)n2)s1.O=C(O)C(F)(F)F`, for which the Ki in data set [1] came out at 0.1 µM. Further, the half-life at 1 µM amounted to 12 min in data set [2] and 37 min in data set [3].
The corresponding values for `CC(C)Cc1cc(-c2cccc(C(=O)Cn3ccnc3C(C)(C)C)c2)c(S(=O)(=O)Nc2ncc(F)cn2)s1.O=C(O)C(F)(F)F` are 0.0017 µM, 16 min and 21 min.
On to `CC(C)Cc1cc(-c2cccc(C(=O)Cn3ccnc3C(C)(C)C)c2)c(S(=O)(=O)Nc2ccc(C#N)cc2)s1`, for which, in data set [1], the Ki came out at 0.6 µM. The half-life at 1 µM was 1.2 min in data set [2] and 2.3 min in data set [3].
For `CC(C)Cc1cc(-c2cccc(Cn3ccnc3)c2)c(S(=O)(=O)Nc2nccc(C(F)(F)F)n2)s1.O=C(O)C(F)(F)F`, in that order: 0.3 µM, 6.7 min and 10 min.
For the compound `CC(C)Cc1cc(-c2cccc(Cn3ccnc3)c2)c(S(=O)(=O)Nc2nccc(C(N)=O)n2)s1.O=C(O)C(F)(F)F`, in data set [1], the Ki was determined as 1.1 µM. Further, the values for the half-life at 1 µM in data set [2] and in data set [3] were 43 min and 36 min, respectively.
For the compound `CC(C)Cc1cc(-c2cccc(C(=O)Cn3ccnc3C(C)(C)C)c2)c(S(=O)(=O)Nc2nccs2)s1`, the inhibition constant Ki in data set [1] was 0.096 µM. In addition, the half-life at 1 µM in data set [2] was determined as 6.7 min; in data set [3], 6.4 min.
In the case of `CC(C)Cc1cc(-c2cccc(C(=O)Cn3ccnc3C(C)(C)C)c2)c(S(=O)(=O)Nc2ccc(C(F)(F)F)cn2)s1`, the Ki in data set [1] is 0.029 µM. Further, the half-life at 1 µM in data set [2] was 2.3 min; in data set [3], 3.6 min.
The compound `CC(C)Cc1cc(-c2cccc(C(=O)Cn3ccnc3C(C)(C)C)c2)c(S(=O)(=O)Nc2ncc(C#N)cn2)s1.O=C(O)C(F)(F)F` yielded a Ki in data set [1] of 0.0043 µM. Moreover, the results for the half-life at 1 µM in data set [2] and in data set [3] were 1.2 min and 2.3 min, respectively.
For `CC(C)Cc1cc(-c2cccc(Cn3ccnc3)c2)c(S(=O)(=O)Nc2ncc(Br)cn2)s1`, in data set [1], the inhibition constant Ki turned out to be 0.042 µM. The half-life at 1 µM turned out to be 14 min in data set [2] and 160 min in data set [3].
